Test results taken from paper PMC5500509, “The prognostic biomarker L-homoarginine is a substrate of the cationic amino acid transporters CAT1, CAT2A and CAT2B” (Scientific Reports, 2017).
Where two headings read alike, the source gives them in different places.

How the values were obtained:
[1] = target: T1, human CAT1 (SLC7A1) (Homo sapiens, UniProt P30825); assay: Inhibition of CAT1-mediated substrate uptake in HEK CAT1 cells; format: cell-based
T1 construct: expressed in transfected cells
Procedure: (§1) Cell lines and basic cell culture conditions have previously been described, [24]. The original choice of human embryonic kidney cells (HEK293) cells for transfection with CAT1-, CAT2A- or CAT2B- was based on their reliable growth and well established propensity for transfection and cellular uptake experiments. In brief, uptake assays were performed using [^3H]-labeled substrate and human embryonic kidney (HEK293) cells stably overexpressing the empty vector only (HEK VCG418 and HEK VChygro, depending on selection conditions) or human CAT1 (HEK CAT1, gene: SLC7A1, NM_003045.4), CAT2A (HEK CAT2A, gene: SLC7A2A, NM_003046.5) or CAT2B (HEK CAT2B, SLC7A2B, NM_001008539.3). The cells were cultured in minimal essential medium containing 10% heat-inactivated fetal bovine serum, 100 U/l penicillin, 100 μg/ml streptomycin, and either G418 (800 µg/ml) or hygromycin B (260 µg/ml) at 37 °C and 5% CO2 with subculture as required. Trypsin (0.05%)-EDTA (0.02%) solution was used to detach cells. All cell culture media supplements were obtained from Invitrogen GmbH (Karlsruhe, Germany).
(§2) The transport assays were performed as previously described with minor modifications, [24]. Cells were seeded into poly-D-lysine-coated 12-well plates. Sodium butyrate (10 mmol/l) was added after 24 h of culture for 24 h to enhance CAT1, CAT2A or CAT2B protein expression. […] In order to identify the period of linear L-homoarginine uptake time dependence was assessed. Cells were incubated with the transport buffer containing 100 μmol/L L-homoarginine at 37 °C for 1, 2.5, 5, 10 and 30 min. For determination of kinetic parameters of CAT-mediated L-homoarginine transport increasing L-homoarginine concentrations and an incubation time of 2.5 min were used.
(§3) After cooling to 0 °C the cells were washed three times with ice-cold transport buffer and lysed with 0.2% SDS. The intracellular accumulation of radioactivity was determined by liquid scintillation counting (TriCarb 2800; PerkinElmer Life and Analytical Sciences, Inc.) after adding 4 ml of scintillation solution (Ultima Gold XR; PerkinElmer Life and Analytical Sciences, Inc., Rodgau-Jügesheim, Germany). A bicinchoninic acid assay was used to assess the protein concentrations. […]
(§4) Statistical analysis was performed using GraphPad Prism 5 (version 5.01, 2007, GraphPad Software, San Diego, CA, USA). Net transport data were calculated as the difference of uptake from cells transfected with the respective CAT transporter and the corresponding empty control vector. […] KM-values for the uptake transport were calculated using Michaelis–Menten enzyme kinetics. The corresponding IC50 values for inhibition were calculated by fitting the data to a sigmoid dose–response regression curve. […]

[2] = target: T2, human CAT2A (SLC7A2A) (Homo sapiens, UniProt P52569); assay: Inhibition of CAT2A-mediated substrate uptake in HEK CAT2A cells; format: cell-based; details: for inhibition of CAT2A-mediated transport of L-homoarginine: substrate L-homoarginine 100 µmol/l, inhibitor 1-10000 µmol/l, IC50 not calculable
T2 construct: expressed in transfected cells
T2 sequence (P52569 1-697 isoform P52569-2): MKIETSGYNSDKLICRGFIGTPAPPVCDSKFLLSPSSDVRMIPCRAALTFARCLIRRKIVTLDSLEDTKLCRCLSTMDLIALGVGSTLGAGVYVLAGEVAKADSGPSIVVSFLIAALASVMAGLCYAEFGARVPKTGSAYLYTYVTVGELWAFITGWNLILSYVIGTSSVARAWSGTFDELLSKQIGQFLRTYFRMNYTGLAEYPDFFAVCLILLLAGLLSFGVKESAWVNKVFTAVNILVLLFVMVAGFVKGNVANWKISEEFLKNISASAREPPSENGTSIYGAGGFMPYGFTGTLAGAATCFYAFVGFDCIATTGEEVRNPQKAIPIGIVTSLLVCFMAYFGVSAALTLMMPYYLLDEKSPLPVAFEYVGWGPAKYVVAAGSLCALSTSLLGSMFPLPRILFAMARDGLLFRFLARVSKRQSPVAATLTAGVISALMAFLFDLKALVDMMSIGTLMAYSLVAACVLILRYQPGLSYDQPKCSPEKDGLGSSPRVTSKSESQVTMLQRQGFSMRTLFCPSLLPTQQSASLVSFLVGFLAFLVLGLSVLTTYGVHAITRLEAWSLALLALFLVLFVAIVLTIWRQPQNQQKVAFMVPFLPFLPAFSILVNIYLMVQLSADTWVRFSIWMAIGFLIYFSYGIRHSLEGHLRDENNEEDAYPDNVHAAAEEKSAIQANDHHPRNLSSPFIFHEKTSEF
Procedure: as §1, with “All cell culture media supplements were obtained from Invitrogen GmbH (Karlsruhe, Germany).” left out
The transport assays were performed as previously described with minor modifications, [24]. […] In order to identify the period of linear L-homoarginine uptake time dependence was assessed. […]
as §3, with “Germany).” for “Germany). A bicinchoninic acid assay was used to assess the protein concentrations.”
as §4

[3] = target: T3, human CAT2B (SLC7A2B) (Homo sapiens, UniProt P52569); assay: Inhibition of CAT2B-mediated substrate uptake in HEK CAT2B cells; format: cell-based
T3 construct: expressed in transfected cells
T3 sequence (P52569 whole entry): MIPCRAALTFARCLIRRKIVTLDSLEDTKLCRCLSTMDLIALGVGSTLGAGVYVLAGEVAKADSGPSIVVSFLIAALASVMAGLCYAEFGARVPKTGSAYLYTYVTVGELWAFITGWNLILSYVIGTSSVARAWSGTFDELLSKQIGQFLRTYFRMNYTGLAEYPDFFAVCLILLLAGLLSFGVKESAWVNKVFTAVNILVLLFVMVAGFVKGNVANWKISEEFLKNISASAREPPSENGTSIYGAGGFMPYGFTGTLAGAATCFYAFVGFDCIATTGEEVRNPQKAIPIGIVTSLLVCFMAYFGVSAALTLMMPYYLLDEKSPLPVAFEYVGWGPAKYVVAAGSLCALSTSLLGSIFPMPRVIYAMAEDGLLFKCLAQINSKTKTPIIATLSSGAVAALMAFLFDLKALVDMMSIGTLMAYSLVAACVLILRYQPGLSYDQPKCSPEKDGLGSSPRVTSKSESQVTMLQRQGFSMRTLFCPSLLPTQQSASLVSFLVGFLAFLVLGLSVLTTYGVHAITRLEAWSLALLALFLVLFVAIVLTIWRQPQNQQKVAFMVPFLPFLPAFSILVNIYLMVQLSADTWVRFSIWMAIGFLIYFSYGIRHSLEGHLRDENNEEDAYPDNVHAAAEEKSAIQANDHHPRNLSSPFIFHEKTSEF
Procedure: as §1, §2, §3, §4

[4] = target: T1, human CAT1 (SLC7A1); assay: CAT1-mediated uptake of [3H]-L-homoarginine in HEK293 cells overexpressing CAT1; format: cell-based
Procedure: as §1
as §2, with “For determination of kinetic parameters of CAT-mediated L-homoarginine transport increasing L-homoarginine concentrations and an incubation time of 2.5 min were used.” left out
as §4

[5] = target: T2, human CAT2A (SLC7A2A); assay: CAT2A-mediated uptake of [3H]-L-homoarginine in HEK293 cells overexpressing CAT2A; format: cell-based
Procedure: as §1
as §2, with “For determination of kinetic parameters of CAT-mediated L-homoarginine transport increasing L-homoarginine concentrations and an incubation time of 2.5 min were used.” left out
as §4

[6] = target: T3, human CAT2B (SLC7A2B); assay: CAT2B-mediated uptake of [3H]-L-homoarginine in HEK293 cells overexpressing CAT2B; format: cell-based
Procedure: as §1
as §2, with “For determination of kinetic parameters of CAT-mediated L-homoarginine transport increasing L-homoarginine concentrations and an incubation time of 2.5 min were used.” left out
as §4

[7] = test system: fibroblasts; parameters: method as in PMID 7040384; details: read-out: KM for uptake of L-homoarginine by cells; cited from earlier work
[8] = test system: rat hepatocytes; parameters: method as in PMID 7068644; details: read-out: KM for uptake of L-homoarginine by cells; cited from earlier work
[9] = parameters: method as in PMID 27434056; details: healthy volunteers, augmented from 2.9 µmol/l; cited from earlier work
[10] = substrate L-homoarginine 100 µmol/l, inhibitor 1-10000 µmol/l, read-out: IC50 for inhibition of CAT2B-mediated uptake of L-homoarginine
[11] = net uptake, 2.5 min incubation, 37 °C

T1 sequence (P30825 whole entry): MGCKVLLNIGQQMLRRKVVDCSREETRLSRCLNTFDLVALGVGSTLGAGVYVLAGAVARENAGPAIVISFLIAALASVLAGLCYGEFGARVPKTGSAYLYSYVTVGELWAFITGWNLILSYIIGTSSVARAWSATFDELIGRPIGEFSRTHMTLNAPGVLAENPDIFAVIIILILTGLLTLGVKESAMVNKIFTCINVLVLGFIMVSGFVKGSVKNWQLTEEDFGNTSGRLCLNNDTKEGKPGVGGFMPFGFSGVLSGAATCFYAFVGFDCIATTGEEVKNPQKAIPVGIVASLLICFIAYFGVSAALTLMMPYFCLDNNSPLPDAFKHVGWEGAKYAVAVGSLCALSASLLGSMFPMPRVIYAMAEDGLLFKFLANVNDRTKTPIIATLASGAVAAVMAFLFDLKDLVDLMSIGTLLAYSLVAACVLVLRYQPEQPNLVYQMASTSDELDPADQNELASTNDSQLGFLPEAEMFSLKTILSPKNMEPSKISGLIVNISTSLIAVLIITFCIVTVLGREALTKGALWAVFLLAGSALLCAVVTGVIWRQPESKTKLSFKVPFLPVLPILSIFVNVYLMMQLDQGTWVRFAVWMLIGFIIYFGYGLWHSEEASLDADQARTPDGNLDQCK

For `CN(C)C(N)=NCCC[C@H](N)C(=O)O` [ADMA, asymmetric dimethylarginine, reference compound], which IC50 ([1]; substrate L-homoarginine 100 µmol/l, inhibitor 1-10000 µmol/l, read-out: IC50 for inhibition of CAT1-mediated uptake of L-homoarginine) is on record?
Its IC50 is 379 µM.

What about the “inhibition of CAT2A-mediated transport of L-homoarginine” value [2] of the same molecule?
Its value is “could only be inhibited by very high (10000 µmol/l) concentrations”.

What about the IC50 [3, 10] of the same molecule?
Its IC50 is 608 µM.

Which “inhibition of CAT1-mediated net uptake of L-homoarginine at physiological concentrations” value ([1]; substrate L-homoarginine 2 µmol/l, inhibitor L-arginine 100 µmol/l, p < 0.01) does the source give for `N=C(N)NCCC[C@H](N)C(=O)O` [L-arginine, reference compound] here?
Its value is “significantly inhibited”.

And the “inhibition of CAT2A-mediated transport of L-homoarginine” value [2]?
Its value is “could only be inhibited by very high (10000 µmol/l) concentrations”.

What about the IC50 [3, 10] of the same molecule?
The IC50 was 1440 µM.

For `NC(N)=NCCCC[C@H](N)C(=O)O` [L-homoarginine], which “cellular uptake of L-homoarginine vs control cells” value (shortened to “cellular uptake … vs control cells”) ([4]; L-homoarginine 100 µmol/l, HEK CAT1 vs HEK VCG418, p < 0.001) is on record?
The value was 7 fold.

And the “apparent Vmax of CAT1-mediated uptake” value [4, 11]?
Its value is 12 ± 0.1 nmol × mg protein^−1 × min^−1.

And the Km ([4]; net uptake, 2.5 min incubation, 37 °C, read-out: apparent KM of CAT1-mediated uptake)?
Its Km is 175 ± 7 µM.

What about the “cellular uptake … vs control cells” value ([5]; L-homoarginine 100 µmol/l, HEK CAT2A vs control cells, p < 0.001) of the same molecule?
The value was 1.6 fold.

What about the “saturation of CAT2A-mediated uptake” value ([5]; increasing L-homoarginine concentrations) of the same molecule?
The value was “could not be reached”.

What about the “Vmax of CAT2A-mediated uptake” value ([5]; net uptake, 2.5 min, 37 °C, only estimated, limited by maximally attainable L-homoarginine concentration) of the same molecule?
Its value is > 20 nmol × mg protein^−1 × min^−1.

What about the “cellular uptake … vs control cells” value ([6]; L-homoarginine 100 µmol/l, HEK CAT2B vs control cells, p < 0.001) of the same molecule?
The value was 2.2 fold.

What about the “apparent Vmax of CAT2B-mediated uptake” value [6, 11] of the same molecule?
The value was 11 ± 0.2 nmol × mg protein^−1 × min^−1.

What about the Km ([6]; net uptake, 2.5 min incubation, 37 °C, read-out: apparent KM of CAT2B-mediated uptake) of the same molecule?
The Km was 523 ± 35 µM.

What about the IC50 ([1]; read-out: IC50 for inhibition of CAT1-mediated uptake of L-arginine, substrate L-arginine 1000 µmol/l, inhibitor 1–100000 µmol/l) of the same molecule?
The IC50 was 1320 µM.

What about the IC50 ([1]; substrate ADMA 100 µmol/l, inhibitor 1–100000 µmol/l, read-out: IC50 for inhibition of CAT1-mediated uptake of ADMA) of the same molecule?
Its IC50 is 642 µM.

What about the IC50 ([2]; substrate ADMA 100 µmol/l, inhibitor 1–100000 µmol/l) of the same molecule?
The IC50 was 9240 µM.

What about the IC50 ([3]; read-out: IC50 for inhibition of CAT2B-mediated uptake of L-arginine, substrate L-arginine 1000 µmol/l, inhibitor 1–100000 µmol/l) of the same molecule?
The IC50 was 1220 µM.

And the IC50 ([3]; substrate ADMA 100 µmol/l, inhibitor 1–100000 µmol/l, read-out: IC50 for inhibition of CAT2B-mediated uptake of ADMA)?
Its IC50 is 1860 µM.

And the Km [7]?
The Km was 40 µM.

And the Km [8]?
Its Km is 300 µM.

What about the “mean plasma concentration after supplementation” value [9] of the same molecule?
The value was 17.3 µM.
